Results published in patent US20190119200A1, “TERTIARY AMIDES AND METHOD OF USE” (AbbVie Inc., priority 2016, published 2019).

What was measured:
LPAR1 = molecular target: T1, LPAR1 (Homo sapiens, UniProt Q92633); test: LPAR1 FLIPR Assay; format: cell-based; details: U2OS cells stably expressing LPAR1, LPA (EC80), Calcium 6 FLIPR dye; for Emax: read-out: Maximum Inhibition
T1 construct: host or cells: U2OS
Protocol: U2OS cells stably expressing LPAR1 (Life Technologies #K1519A) were plated at 12000 cells/well in growth medium (McCoy's 5A medium(Life Technologies 16600-082)) with 10% dFBS (Life Technologies 26400-036), 0.1 mM non-essential amino acids, 25 mM HEPES, 1 mM sodium pyruvate, 1% penicillin/streptomycin, 50 μg/mL hygromycin, and 100 μg/mL Geneticin® in black-walled, clear-bottom 384-well plates (Corning #3683) and incubated in humidified 5% CO2 at 37° C. overnight. On the day of the assay, medium was removed and 30 μL of 5% Calcium 6 FLIPR dye in assay buffer-HBSS (Life Technologies #14025) containing 20 mM HEPES (Life Technologies #15630-080) was added to the cells. Cells were incubated at 37° C. in the dark for 2 hours. Compounds were 3-fold serial diluted from 10 mM for 11-points using dimethyl sulfoxide. 1 μL of compound in DMSO was diluted in 82.3 μL assay buffer immediately before the assay. Using a FLIPR® TETRA® system, 15 μL of the (4×) compound solutions were first added to the cells, then 15 μL of LPA (EC80) diluted in of assay buffer supplemented with 0.1% BSA was added 3 minutes later to activate the receptor. Changes in fluorescence were measured at wavelengths of 515-575 nm over the course of the experimental run. IC50 values were calculated from curve fits of the ratio data using a four-parameter logistic Hill equation (Assay Explorer 3.3 Client).

[1] = tested on: LPA-induced MCP-1 in NRK-49F cells; test: LPA-induced MCP-1 AlphaLISA assay; format: cell-based; details: Rattus norvegicus, final LPA 10 μM, 7 hours; for Emax: read-out: Maximum Inhibition
Protocol: Two days prior to the experiment, NRK-49F cells were plated at 8,000 cells/well in 100 μL of growth medium [DMEM (Life Technologies #11995) with 5% dFBS (Life Technologies #30067-334), 100 units/mL penicillin/streptomycin (Life Technologies #15140122)] in 96-well clear flat bottom polystyrene TC-treated microplate (Corning® #3599) and incubated in humidified 10% CO2 at 37° C. One day prior to the experiment, the cell medium was removed and serum free medium [100 μL/well, DMEM (Life Technologies #11995) with 0.1% fatty acid free BSA (Sigma #A6003)] was added with continued incubation in humidified 10% CO2 at 37° C. overnight. On the day of the assay, test compounds were 1:3 serially diluted in 100% DMSO using a BioTek Precision™ system and then transferred (equivalent volume of DMSO as controls) to a plate in serum free medium [DMEM with 0.1% fatty acid free BSA] using a Biomek® NX workstation to give a 2× compound solution. The cell culture medium was removed, and cells were pre-treated with 50 μL/well of 2× compound in serum free medium [DMEM with 0.1% fatty acid free BSA] at 37° C. for 30 minutes. Following the incubation, 50 μL/well of 20 μM LPA diluted in serum free medium [DMEM with 0.1% fatty acid free BSA] was added to the cells. Serum free medium [DMEM with 0.1% fatty acid free BSA] was used as substitution for low control wells while 20 µM LPA was added to high control wells and test compound wells. 200 µM LPA was added to EC100 wells. Final DMSO concentration was 1% in every well. Final LPA concentration in test compound wells and high control wells was 10 μM. […] After the incubation, cell supernatant was transferred to a new 96 well polypropylene plate (Greiner #651201) where it was sealed and stored at −80° C. On the detection day, 5 μL of thawed cell supernatant was transferred to a new white opaque 384-well microplate (Perkin Elmer #6007299). An AlphaLISA® mouse/rat CCL2/MCP1, Immunoassay Research kit (PerkinElmer #AL509F) was used. A mixture (20 μL/well) of AlphaLISA® Anti-Analyte Accept beads (10 μg/mL final) and Biotinylated Antibody Anti-Analyte (freshly prepared, 1 nM final) was added. The mixture in the wells was mixed and then incubated at room temperature for 1 hour. Then SA-Donor beads (25 μL/well, 40 μg/mL final) were added giving a final volume of 50 μL/well. The contents of the wells were mixed and then incubated at room temperature for 0.5 hour (protect from light). The plate was read using the default Envision™ Alpha protocol (PerkinElmer). IC50 values were calculated from curve fits of the ratio data using a four-parameter logistic Hill equation (Assay Explorer 3.3 Client).

T1 sequence (Q92633 whole entry): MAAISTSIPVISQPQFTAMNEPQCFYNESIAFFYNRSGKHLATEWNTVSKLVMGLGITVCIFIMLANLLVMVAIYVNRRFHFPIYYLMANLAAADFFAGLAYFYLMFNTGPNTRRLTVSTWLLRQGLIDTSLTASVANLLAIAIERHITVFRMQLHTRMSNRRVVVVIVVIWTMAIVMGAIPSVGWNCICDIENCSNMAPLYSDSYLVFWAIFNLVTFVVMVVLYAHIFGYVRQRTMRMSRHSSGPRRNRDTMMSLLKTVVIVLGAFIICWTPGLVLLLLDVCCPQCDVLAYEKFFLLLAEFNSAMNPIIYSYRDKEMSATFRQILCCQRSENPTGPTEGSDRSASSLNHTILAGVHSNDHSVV

Row | Structure (SMILES) | IC50 (LPAR1) | Emax (LPAR1) | IC50 [1] | Emax [1] | Maximum Inhibition (LPAR1)
1 | COc1cc(C(=O)N(CCCCC(=O)O)CCCc2ccccc2)ccc1Cl [Example 17, 5-[(4-chloro-3-methoxybenzoyl)(3-phenylpropyl)amino]pentanoic Acid] | 3980 nM | 61% | > 1300 nM | 65% | 
2 | CCOc1cc(OCC)cc(C(=O)N(CCCCC(=O)O)CCCc2ccccc2)c1 [Example 18, 5-[(3,5-diethoxybenzoyl)(3-phenylpropyl)amino]pentanoic Acid] | 50 nM | 89% | 1630 nM | 86% | 
3 | COc1cc(OC)c([N+](=O)[O-])c(C(=O)N(CCCCC(=O)O)CCCc2ccccc2)c1 [Example 19, 5-[(3,5-dimethoxy-2-nitrobenzoyl)(3-phenylpropyl)amino]pentanoic Acid] | 71 nM | 98% | 783 nM | 84% | 
4 | COc1cc(C(=O)N(CCCCC(=O)O)CCCc2ccccc2)ccc1[N+](=O)[O-] [Example 22, 5-[(3-methoxy-4-nitrobenzoyl)(3-phenylpropyl)amino]pentanoic Acid] | 54 nM | 89% | > 9350 nM | 42% | 
5 | COc1cc(C(=O)N(CCCCC(=O)O)CCCc2ccccc2)cc2oc(C)cc12 [Example 31, 5-[(4-methoxy-2-methyl-1-benzofuran-6-carbonyl)(3-phenylpropyl)amino]pentanoic Acid] | 45 nM | 87% | 5320 nM | 68% | 
6 | COc1cc(C(=O)N(CCCc2ccccc2)CC(=O)N[C@@H](Cc2cccs2)C(=O)O)cc(OC)c1C [Example 47, N-(3,5-dimethoxy-4-methylbenzoyl)-N-(3-phenylpropyl)glycyl-3-thiophen-2-ylalanine] | 79 nM | 88% | 4700 nM | 58% | 
7 | COc1cc(C(=O)N(CCCc2ccccc2)CCCC(Cc2ccccc2)C(=O)O)cc(OC)c1C (centres unmarked) [Example 52, 2-benzyl-5-[(3,5-dimethoxy-4-methylbenzoyl)(3-phenylpropyl)amino]pentanoic Acid] | 124 nM | 87% | 1010 nM | 77% | 
8 | COc1cc(C(=O)N(CCCc2ccccc2)CCC(=O)O)cc(OC)c1C [Example 67, N-(3,5-dimethoxy-4-methylbenzoyl)-N-(3-phenylpropyl)-beta-alanine] | > 30000 nM | 46% | 3720 nM | 57% | 
9 | CCOC1CC1(C(=O)N(CCCCC(=O)O)CCCc1ccccc1)c1ccc(OC)cc1 (centres unmarked) [Example 149, 5-{[2-ethoxy-1-(4-methoxyphenyl)cyclopropane-1-carbonyl](3-phenylpropyl)amino}pentanoic Acid] | 838 nM | 72% |  |  | 
10 | COc1cc(C(=O)N(CCCCC(=O)O)[C@H](C)CCc2ccccc2)cc(OC)c1C [Example 153, 5-{(3,5-dimethoxy-4-methylbenzoyl)[(2R)-4-phenylbutan-2-yl]amino}pentanoic Acid] | 127 nM | 83% |  |  | 
11 | COc1cc(C(=O)N(CCCCC(=O)O)[C@@H](C)CCc2ccccc2)cc(OC)c1C [Example 154, 5-{(3,5-dimethoxy-4-methylbenzoyl) [(2S)-4-phenylbutan-2-yl]amino}pentanoic Acid] | 225 nM | 69% |  |  | 
12 | COc1cc(C(=O)N(CCCc2ccccc2)CCOC(C)(C)C(=O)NS(C)(=O)=O)cc(OC)c1C [Example 156, N-[2-({1-[(methanesulfonyl)amino]-2-methyl-1-oxopropan-2-yl}oxy)ethyl]-3,5-dimethoxy-4-methyl-N-(3-phenylpropyl)benzamide] | 21 nM | 99% |  |  | 
13 | COc1ccc(C2(C(=O)N(CCCCC(=O)O)CCCc3ccccc3)CC(OC)C2)cc1 (stereo not drawn) [Example 158, 5-{[cis-3-methoxy-1-(4-methoxyphenyl)cyclobutane-1-carbonyl](3-phenylpropyl)amino}pentanoic Acid] | 511 nM |  |  |  | 98%
14 | COc1ccc(C2(C(=O)N(CCCCC(=O)O)CCCc3ccccc3)CC(OC)C2)cc1 (stereo not drawn) [Example 159, 5-{[trans-3-methoxy-1-(4-methoxyphenyl)cyclobutane-1-carbonyl](3-phenylpropyl)amino}pentanoic Acid] | 302 nM |  |  |  | 85%
15 | Cc1nc2c(C(=O)N(CCCCC(=O)O)CCCc3ccccc3)cccc2c(=O)[nH]1 [Example 160, 5-[(2-methyl-4-oxo-3,4-dihydroquinazoline-8-carbonyl)(3-phenylpropyl)amino]pentanoic Acid] | 8020 nM | 63% |  |  | 
16 | COc1cc(C(=O)N(CCCCC(=O)O)CCCc2ccccc2)nc(OC)n1 [Example 163, 5-[(2,6-dimethoxypyrimidine-4-carbonyl)(3-phenylpropyl)amino]pentanoic Acid] | 244 nM | 57% |  |  | 
17 | COc1cc(C(=O)N(CCCc2ccccc2)C(C)CCCC(=O)O)cc(OC)c1C (centres unmarked) [Example 164, 5-[(3,5-dimethoxy-4-methylbenzoyl)(3-phenylpropyl)amino]hexanoic Acid] | 237 nM | 76% |  |  | 
18 | O=C(O)CCCCN(CCCc1ccccc1)C(=O)C1CC(=O)Nc2ccc(F)cc21 (centres unmarked) [Example 168, 5-[(6-fluoro-2-oxo-1,2,3,4-tetrahydroquinoline-4-carbonyl)(3-phenylpropyl)amino]pentanoic Acid] | 1100 nM | 62% |  |  | 
19 | Cn1cc(C(=O)N(CCCCC(=O)O)CCCc2ccccc2)c2ccccc2c1=O [Example 169, 5-[(2-methyl-1-oxo-1,2-dihydroisoquinoline-4-carbonyl)(3-phenylpropyl)amino]pentanoic Acid] | 3090 nM | 71% |  |  | 
20 | Cc1cc(C(=O)N(CCCCC(=O)O)CCCc2ccccc2)c2c(C)noc2n1 [Example 172, 5-[(3,6-dimethyl[1,2]oxazolo[5,4-b]pyridine-4-carbonyl)(3-phenylpropyl)amino]pentanoic Acid] | 1460 nM | 63% |  |  | 
21 | COc1cc(C(=O)N(CCCCC(=O)O)CCCc2ccc(C)o2)cc(OC)c1C(F)(F)F [Example 177, 5-{[3,5-dimethoxy-4-(trifluoromethyl)benzoyl][3-(5-methylfuran-2-yl)propyl]amino}pentanoic Acid] | 235 nM | 57% |  |  | 
22 | COc1cc(C(=O)N(CCCc2ccccc2)C[C@H]2CCC(=O)O2)cc(OC)c1C [Example 181, 3,5-dimethoxy-4-methyl-N-{[(2R)-5-oxooxolan-2-yl]methyl}-N-(3-phenylpropyl)benzamide] | 486 nM | 80% |  |  | 
23 | COc1cc(C(=O)N(CCCc2ccccc2)CCOC(=O)NS(=O)(=O)c2ccc(F)cc2)cc(OC)c1C [Example 183, 2-[(3,5-dimethoxy-4-methylbenzoyl)(3-phenylpropyl)amino]ethyl (4-fluorobenzene-1-sulfonyl)carbamate] | > 10000 nM | 30% |  |  | 
